Laboratory results reported in ChEMBL document CHEMBL3352739, “Comparative in vivo evaluation of polyalkoxy substituted 4H-chromenes and oxa-podophyllotoxins as microtubule destabilizing agents in the phenotypic sea urchin embryo assay” (2014).

Key:
[1] = Growth inhibition of human EKVX cells after 48 hrs by sulforhodamine B assay; type: functional
HOP-62 = test: Growth inhibition of human HOP62 cells after 48 hrs by sulforhodamine B assay; type: functional; details: HOP-62, 48 h
NCI-H226 = test: Growth inhibition of human NCI-H226 cells after 48 hrs by sulforhodamine B assay; type: functional; details: NCI-H226, 48 h
NCI-H23 = test: Growth inhibition of human NCI-H23 cells after 48 hrs by sulforhodamine B assay; type: functional; details: NCI-H23, 48 h
NCI-H322M = test: Growth inhibition of human NCI-H322M cells after 48 hrs by sulforhodamine B assay; type: functional
NCI-H460 = test: Growth inhibition of human NCI-H460 cells after 48 hrs by sulforhodamine B assay; type: functional; details: NCI-H460, 48 h
NCI-H522 = test: Growth inhibition of human NCI-H522 cells after 48 hrs by sulforhodamine B assay; type: functional; details: NCI-H522, 48 h
[2] = Growth inhibition of human COLO205 cells after 48 hrs by sulforhodamine B assay; type: functional; details: COLO 205, 48 h
[3] = Growth inhibition of human HCC2998 cells after 48 hrs by sulforhodamine B assay; type: functional; details: HCC 2998, 48 h
[4] = Growth inhibition of human HCT116 cells after 48 hrs by sulforhodamine B assay; type: functional; details: HCT-116, 48 h
[5] = Growth inhibition of human HCT15 cells after 48 hrs by sulforhodamine B assay; type: functional; details: HCT-15, 48 h
HT-29 = test: Growth inhibition of human HT-29 cells after 48 hrs by sulforhodamine B assay; type: functional; details: HT-29, 48 h
KM12 = test: Growth inhibition of human KM12 cells after 48 hrs by sulforhodamine B assay; type: functional; details: KM12, 48 h
SW-620 = test: Growth inhibition of human SW620 cells after 48 hrs by sulforhodamine B assay; type: functional; details: SW-620, 48 h
SF-268 = test: Growth inhibition of human SF268 cells after 48 hrs by sulforhodamine B assay; type: functional; details: SF-268, 48 h
[6] = Growth inhibition of human SF295 cells after 48 hrs by sulforhodamine B assay; type: functional; details: SF-295, 48 h
[7] = Growth inhibition of human SF539 cells after 48 hrs by sulforhodamine B assay; type: functional; details: SF-539, 48 h
SNB-19 = test: Growth inhibition of human SNB19 cells after 48 hrs by sulforhodamine B assay; type: functional; details: SNB-19, 48 h
SNB-75 = test: Growth inhibition of human SNB75 cells after 48 hrs by sulforhodamine B assay; type: functional; details: SNB-75, 48 h
U-251 = test: Growth inhibition of human U251 cells after 48 hrs by sulforhodamine B assay; type: functional; details: U-251, 48 h
[8] = Growth inhibition of human LOXIMVI cells after 48 hrs by sulforhodamine B assay; type: functional; details: LOX IMVI
Malme-3M = test: Growth inhibition of human MALME-3M cells after 48 hrs by sulforhodamine B assay; type: functional
M14 = test: Growth inhibition of human M14 cells after 48 hrs by sulforhodamine B assay; type: functional; details: M14, 48 h
MDA-MB-435 = test: Growth inhibition of human MDA-MB-435 cells after 48 hrs by sulforhodamine B assay; type: functional; details: MDA-MB-435, 48 h
SK-MEL-2 = test: Growth inhibition of human SK-MEL-2 cells after 48 hrs by sulforhodamine B assay; type: functional; details: SK-MEL-2, 48 h
SK-MEL-28 = test: Growth inhibition of human SK-MEL-28 cells after 48 hrs by sulforhodamine B assay; type: functional; details: SK-MEL-28, 48 h
SK-MEL-5 = test: Growth inhibition of human SK-MEL-5 cells after 48 hrs by sulforhodamine B assay; type: functional; details: SK-MEL-5, 48 h
[9] = Growth inhibition of human UACC257 cells after 48 hrs by sulforhodamine B assay; type: functional; details: UACC-257, 48 h
[10] = Growth inhibition of human UACC62 cells after 48 hrs by sulforhodamine B assay; type: functional; details: UACC-62, 48 h
IGROV-1 = test: Growth inhibition of human IGROV1 cells after 48 hrs by sulforhodamine B assay; type: functional; details: IGROV-1, 48 h
[11] = Growth inhibition of human OVCAR3 cells after 48 hrs by sulforhodamine B assay; type: functional; details: OVCAR-3, 48 h
[12] = Growth inhibition of human OVCAR4 cells after 48 hrs by sulforhodamine B assay; type: functional; details: OVCAR-4, 48 h
[13] = Growth inhibition of human OVCAR5 cells after 48 hrs by sulforhodamine B assay; type: functional; details: OVCAR-5, 48 h
[14] = Growth inhibition of human OVCAR8 cells after 48 hrs by sulforhodamine B assay; type: functional; details: OVCAR-8, 48 h
[15] = Growth inhibition of human NCI-ADR-RES cells after 48 hrs by sulforhodamine B assay; type: functional
SK-OV-3 = test: Growth inhibition of human SKOV3 cells after 48 hrs by sulforhodamine B assay; type: functional; details: SK-OV-3, 48 h
786-0 = test: Growth inhibition of human 786-0 cells after 48 hrs by sulforhodamine B assay; type: functional; details: 786-0, 48 h
A498 = test: Growth inhibition of human A498 cells after 48 hrs by sulforhodamine B assay; type: functional; details: A498, 48 h
CAKI-1 = test: Growth inhibition of human CAKI-1 cells after 48 hrs by sulforhodamine B assay; type: functional; details: CAKI-1, 48 h
[16] = Growth inhibition of human RXF393 cells after 48 hrs by sulforhodamine B assay; type: functional; details: RXF 393, 48 h
SN12C = test: Growth inhibition of human SN12C cells after 48 hrs by sulforhodamine B assay; type: functional
TK-10 = test: Growth inhibition of human TK10 cells after 48 hrs by sulforhodamine B assay; type: functional; details: TK-10, 48 h
[17] = Growth inhibition of human UO31 cells after 48 hrs by sulforhodamine B assay; type: functional; details: UO-31, 48 h
[18] = Growth inhibition of human PC3 cells after 48 hrs by sulforhodamine B assay; type: functional; details: PC-3, 48 h
DU-145 = test: Growth inhibition of human DU145 cells after 48 hrs by sulforhodamine B assay; type: functional; details: DU-145, 48 h
MCF7 = test: Growth inhibition of human MCF7 cells after 48 hrs by sulforhodamine B assay; type: functional; details: MCF7, 48 h
MDA-MB-231 = test: Growth inhibition of human MDA-MB-231 cells after 48 hrs by sulforhodamine B assay; type: functional; details: MDA-MB-231, 48 h
[19] = Growth inhibition of human Hs 578T cells after 48 hrs by sulforhodamine B assay; type: functional
[20] = Growth inhibition of human BT549 cells after 48 hrs by sulforhodamine B assay; type: functional; details: BT-549, 48 h
T47D = test: Growth inhibition of human T47D cells after 48 hrs by sulforhodamine B assay; type: functional
MDA-MB-468 = test: Growth inhibition of human MDA-MB-468 cells after 48 hrs by sulforhodamine B assay; type: functional; details: MDA-MB-468, 48 h
Paracentrotus lividus [21] = test: Antimitotic microtubule destabilizing activity in Paracentrotus lividus L embryos assessed as induction of cleavage alteration
Paracentrotus lividus [22] = test: Antimitotic microtubule destabilizing activity in Paracentrotus lividus L embryos assessed as induction of cleavage arrest
Paracentrotus lividus [23] = test: Antimitotic microtubule destabilizing activity in Paracentrotus lividus L embryos assessed as induction of embryo spinning
[24] = Cytotoxicity against human NCI60 cells; type: functional
CCRF-CEM = test: Growth inhibition of human CCRF-CEM cells after 48 hrs by sulforhodamine B assay; type: functional
HL-60(TB) = test: Growth inhibition of human HL-60(TB) cells after 48 hrs by sulforhodamine B assay; type: functional; details: HL-60, 48 h
[25] = Growth inhibition of human MOLT4 cells after 48 hrs by sulforhodamine B assay; type: functional; details: MOLT-4, 48 h
[26] = Growth inhibition of human RPMI8226 cells after 48 hrs by sulforhodamine B assay; type: functional; details: RPMI-8226, 48 h
SR = test: Growth inhibition of human SR cells after 48 hrs by sulforhodamine B assay; type: functional
A549 = test: Growth inhibition of human A549/ATCC cells after 48 hrs by sulforhodamine B assay; type: functional; details: A549, 48 h

## COc1cccc(C2C(C#N)=C(N)Oc3cc4c(cc32)OCO4)c1 (stereo unspecified)
[1]
  GI50: 0.259 µM
HOP-62
  GI50: 0.0432 µM
NCI-H226
  GI50: 0.0455 µM
NCI-H23
  GI50: 0.0977 µM
NCI-H322M
  GI50: 2.11 µM
NCI-H460
  GI50: 0.044 µM
NCI-H522
  GI50: 0.0231 µM
[2]
  GI50: 0.0432 µM
[3]
  GI50: 0.101 µM
[4]
  GI50: 0.0498 µM
[5]
  GI50: 0.0447 µM
HT-29
  GI50: 0.0462 µM
KM12
  GI50: 0.0365 µM
SW-620
  GI50: 0.0365 µM
SF-268
  GI50: 0.0541 µM
[6]
  GI50: 0.0344 µM
[7]
  GI50: 0.0344 µM
SNB-19
  GI50: 0.0543 µM
SNB-75
  GI50: 0.0238 µM
U-251
  GI50: 0.0462 µM
[8]
  GI50: 0.046 µM
Malme-3M
  GI50: 0.0501 µM
M14
  GI50: 0.0549 µM
MDA-MB-435
  GI50: 0.0203 µM
SK-MEL-2
  GI50: 0.0301 µM
SK-MEL-28
  GI50: 0.07 µM
SK-MEL-5
  GI50: 0.0378 µM
[9]
  GI50: 0.0471 µM
[10]
  GI50: 0.0434 µM
IGROV-1
  GI50: 0.0973 µM
[11]
  GI50: 0.0256 µM
[12]
  GI50: 2.51 µM
[13]
  GI50: 0.447 µM
[14]
  GI50: 0.0971 µM
[15]
  GI50: 0.0302 µM
SK-OV-3
  GI50: 0.0362 µM
786-0
  GI50: 0.0587 µM
A498
  GI50: 0.0291 µM
CAKI-1
  GI50: 0.0409 µM
[16]
  GI50: 0.029 µM
SN12C
  GI50: 0.0792 µM
TK-10
  GI50: 6.01 µM
[17]
  GI50: 0.0589 µM
[18]
  GI50: 0.0656 µM
DU-145
  GI50: 0.0845 µM
MCF7
  GI50: 0.0364 µM
MDA-MB-231
  GI50: 2.17 µM
[19]
  GI50: 0.0316 µM
[20]
  GI50: 0.0874 µM
T47D
  GI50: 0.0502 µM
MDA-MB-468
  GI50: 0.0254 µM
Paracentrotus lividus [21]
  EC: 0.005 µM
Paracentrotus lividus [22]
  EC: 0.05 µM
Paracentrotus lividus [23]
  EC: 0.2 µM
[24]
  GI50: 0.065 µM
CCRF-CEM
  GI50: 0.036 µM
HL-60(TB)
  GI50: 0.0242 µM
[25]
  GI50: 0.00617 µM
[26]
  GI50: 0.105 µM
SR
  GI50: 0.0302 µM
A549
  GI50: 0.0625 µM
